Values joined by “and” are separate entries in the source; they are usually repeats but may differ in a detail not shown here. Identical values can stand only once. Like-named read-outs stand apart in the source and are kept apart here.
Experiments:
hCA II = molecular target: T1, hCA II (Homo sapiens, UniProt P00918); experiment: stopped-flow CO2 hydrase assay, hCA II; format: biochemical; details: errors ±10 %, three assays
T1 construct: made in house
Method: (§1) The uncatalyzed rates were determined in the same manner and subtracted from the total observed rates.

VchCAβ = VchCAβ (Vibrio cholerae, UniProt A0A086SLX8); experiment: biochemical
VchCAα = VchCAα (Vibrio cholerae, UniProt Q9KMP6); experiment: stopped-flow CO2 hydrase assay, VchCAα; format: biochemical
VchCAγ = VchCAγ (Vibrio cholerae, UniProt Q9KVT1); experiment: stopped-flow CO2 hydrase assay, VchCAγ; format: biochemical
hCA I = molecular target: T2, hCA I (Homo sapiens, UniProt P00915); experiment: stopped-flow CO2 hydrase assay, hCA I; format: biochemical
T2 construct: made in house
Method: as §1

Vibrio cholerae = system: Vibrio cholerae; design: method as in PMID 26235676, PMID 27283786, PMID 23488877; details: thus reducing the growth rates of pathogen; cited from earlier work

VchCAα, sequence (Q9KMP6 entry or part of it): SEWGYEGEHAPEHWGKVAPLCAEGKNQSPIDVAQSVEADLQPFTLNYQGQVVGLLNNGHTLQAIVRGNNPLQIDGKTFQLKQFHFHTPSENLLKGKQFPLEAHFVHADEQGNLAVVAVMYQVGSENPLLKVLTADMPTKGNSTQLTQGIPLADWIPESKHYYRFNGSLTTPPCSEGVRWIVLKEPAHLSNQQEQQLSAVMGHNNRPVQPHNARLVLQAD
VchCAβ, sequence (A0A086SLX8 entry or part of it): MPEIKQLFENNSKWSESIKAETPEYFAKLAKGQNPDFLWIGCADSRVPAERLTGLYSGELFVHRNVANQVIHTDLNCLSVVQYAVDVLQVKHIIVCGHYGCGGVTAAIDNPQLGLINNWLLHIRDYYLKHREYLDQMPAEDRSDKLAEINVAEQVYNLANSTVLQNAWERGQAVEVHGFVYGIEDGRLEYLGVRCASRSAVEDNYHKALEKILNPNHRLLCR
T2 sequence (P00915 whole entry): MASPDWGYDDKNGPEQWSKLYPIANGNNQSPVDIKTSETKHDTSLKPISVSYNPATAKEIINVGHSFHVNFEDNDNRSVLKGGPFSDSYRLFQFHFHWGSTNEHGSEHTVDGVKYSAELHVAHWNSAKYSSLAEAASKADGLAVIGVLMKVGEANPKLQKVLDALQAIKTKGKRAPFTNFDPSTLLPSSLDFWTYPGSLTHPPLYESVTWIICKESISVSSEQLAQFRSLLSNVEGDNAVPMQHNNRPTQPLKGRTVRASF
VchCAγ, sequence (Q9KVT1 1-184): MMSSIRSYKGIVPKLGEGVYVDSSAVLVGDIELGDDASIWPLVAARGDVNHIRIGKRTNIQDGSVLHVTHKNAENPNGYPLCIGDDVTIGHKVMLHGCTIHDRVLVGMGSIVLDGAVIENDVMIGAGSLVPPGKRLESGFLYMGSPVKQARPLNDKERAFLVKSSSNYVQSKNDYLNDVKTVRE

Row | SMILES | Ki (hCA II) | Ki (VchCAβ) | Ki (VchCAα) | Ki (VchCAγ) | melting point | Ki (hCA I) | effect on bicarbonate mediated virulence gene induction (Vibrio cholerae) | Ki (VchCAγ; stopped-flow CO2 hydrase assay, errors ±10 %, three assays, read-out: Ki VchCA γ) | fold more active against VchCAα over hCA I (VchCAα; selectivity VchCAα vs hCA I) | fold more selective (VchCAγ) over hCA I (VchCAγ; selectivity VchCAγ vs hCA I) | fold more selective (VchCAγ) over hCA II (VchCAγ; selectivity VchCAγ vs hCA II)
1 | NS(=O)(=O)c1ccc(CNC(=O)CNC(=O)c2cccs2)cc1 [compound 42, N‐(2‐Oxo‐2‐((4‐sulfamoylbenzyl)amino)ethyl)thiophene‐2‐carboxamide] | 87.3 nM | 627 nM | 9.3 nM | 244 nM | 220 to 222 °C | 828 nM |  |  |  |  | 
2 | CCOc1ccc2nc(S(N)(=O)=O)sc2c1 [EZA, ethoxzolamide] |  |  |  |  |  |  | suppressed bicarbonate mediated virulence gene induction |  |  |  | 
3 | CC(C)[C@H](N)C(=O)Nc1ccc(S(N)(=O)=O)cc1 [compound 12, (S)‐2‐amino‐3‐methyl‐N‐(4‐sulfamoylphenyl)butanamide] | 183 nM | 362 nM | 659 nM | 88.6 nM |  | 609 nM |  |  |  |  | 
4 | NS(=O)(=O)c1ccc(CNC(=O)CNC(=O)c2ccco2)cc1 [compound 39, N‐(2‐Oxo‐2‐((4‐sulfamoylbenzyl)amino)ethyl)furan‐2‐carboxamide] | 316 nM | 394 nM | 35.7 nM | 734 nM |  | 1440 nM |  |  |  |  | 
5 | CC(C)[C@H](NC(=O)c1ccco1)C(=O)NCc1ccc(S(N)(=O)=O)cc1 [compound 41, (S)‐N‐(3‐Methyl‐1‐oxo‐1‐((4‐sulfamoylbenzyl)amino)butan‐2‐yl)furan‐2‐carboxamide] | 19.6 nM | 707 nM | 97.8 nM | 95.3 nM | 226 to 228 °C | 215 nM |  |  |  |  | 
6 | CC(C)[C@H](NC(=O)c1ccccc1)C(=O)Nc1ccc(S(N)(=O)=O)cc1 [compound 15, (S)‐N‐(3‐methyl‐1‐oxo‐1‐((4‐sulfamoylphenyl)amino)butan‐2‐yl)benzamide] | 3.7 nM | 389 nM | 9.2 nM | 24.3 nM | 279 to 280 °C | 51.5 nM |  |  |  |  | 
7 | C[C@H](NC(=O)c1cccs1)C(=O)NCc1ccc(S(N)(=O)=O)cc1 [compound 43, (S)‐N‐(1‐Oxo‐1‐((4‐sulfamoylbenzyl)amino)propan‐2‐yl)thiophene‐2‐carboxamide] | 71.1 nM | 691 nM | 63.1 nM | 93.2 nM | 221 to 223 °C | 651 nM |  |  |  |  | 
8 | NS(=O)(=O)c1ccc(NC(=O)CNC(=O)c2ccc(Cl)cc2)cc1 [compound 22, 4‐Chloro‐N‐(2‐oxo‐2‐((4‐sulfamoylphenyl)amino)ethyl)benzamide] | 3.3 nM | 59.7 nM | 9.6 nM | 282 nM | 226 to 228 °C | 81.3 nM |  |  |  |  | 
9 | NS(=O)(=O)c1ccc(NC(=O)CNC(=O)c2ccccc2Cl)cc1 [compound 20, 2‐Chloro‐N‐(2‐oxo‐2‐((4‐sulfamoylphenyl)amino)ethyl)benzamide] | 29.6 nM | 796 nM | 8.9 nM | 8930 nM | 249 to 251 °C | 564 nM |  |  |  |  | 
10 | NCC(=O)Nc1ccc(S(N)(=O)=O)cc1 [compound 10, 2‐amino‐N‐(4‐sulfamoylphenyl)acetamide] |  | 3170 nM | 8 nM |  |  |  |  | 744 nM |  |  | 
11 | NS(=O)(=O)c1ccc(CNC(=O)CNC(=O)c2ccccc2)cc1 [compound 36, N‐(2‐Oxo‐2‐((4‐sulfamoylbenzyl)amino)ethyl)benzamide] | 368 nM | 82.8 nM | 8.2 nM | 230 nM | 211 to 213 °C | 754 nM |  |  |  |  | 
12 | C[C@H](NC(=O)c1ccco1)C(=O)NCc1ccc(S(N)(=O)=O)cc1 [compound 40, (S)‐N‐(1‐Oxo‐1‐((4‐sulfamoylbenzyl)amino)propan‐2‐yl)furan‐2‐carboxamide] | 6100 nM and 6090 nM | 612 nM | 8.5 nM | 92.8 nM |  | 6280 nM |  |  | ~730 fold | ~70 fold | ~70 fold
13 | CC(C)[C@H](NC(=O)c1cccs1)C(=O)NCc1ccc(S(N)(=O)=O)cc1 [compound 44, (S)‐N‐(3‐Methyl‐1‐oxo‐1‐((4‐sulfamoylbenzyl)amino)butan‐2‐yl)thiophene‐2‐carboxamide] | 18.4 nM | 94.4 nM | 30.5 nM | 84.8 nM | 144 to 146 °C | 94.9 nM |  |  |  |  | 
14 | C[C@H](NC(=O)c1ccccc1)C(=O)Nc1ccc(S(N)(=O)=O)cc1 [compound 14, (S)‐N‐(1‐oxo‐1‐((4‐sulfamoylphenyl)amino)propan‐2‐yl)benzamide] | 4.4 nM | 3000 nM | 9.5 nM | 80.5 nM | 260 to 261 °C | 46.1 nM |  |  |  |  | 
15 | CC(C)[C@H](NC(=O)c1ccccc1)C(=O)NCc1ccc(S(N)(=O)=O)cc1 [compound 38, (S)‐N‐(3‐Methyl‐1‐oxo‐1‐((4‐sulfamoylbenzyl)amino)butan‐2‐yl)benzamide] | 170 nM | 94.6 nM | 37.6 nM | 332 nM | 213 to 215 °C | 505 nM |  |  |  |  | 
16 | NS(=O)(=O)c1ccc(NC(=O)CNC(=O)c2ccco2)cc1 [compound 31, N‐(2‐Oxo‐2‐((4‐sulfamoylphenyl)amino)ethyl)furan‐2‐carboxamide] | 22.2 nM | 460 nM | 6.8 nM | 7750 nM | 238 to 240 °C | 621 nM |  |  |  |  | 
17 | C[C@H](N)C(=O)Nc1ccc(S(N)(=O)=O)cc1 [compound 11, (S)‐2‐Amino‐N‐(4‐sulfamoylphenyl)propanamide] | 383 nM | 381 nM | 35.7 nM | 23.7 nM | 216 to 217 °C | 869 nM |  |  |  |  | 
18 | NS(=O)(=O)c1ccc(NC(=O)CNC(=O)c2cccs2)cc1 [compound 32, N‐(2‐Oxo‐2‐((4‐sulfamoylphenyl)amino)ethyl)thiophene‐2‐carboxamide] | 38.5 nM | 636 nM | 4.8 nM | 6020 nM | 265 to 267 °C | 430 nM |  |  |  |  | 
19 | NS(=O)(=O)c1ccc(NC(=O)CNC(=O)c2ccccc2)cc1 [compound 13, (S)‐N‐(2‐Oxo‐2‐((4‐sulfamoylphenyl)amino)ethyl)benzamide] | 19.9 nM | 884 nM | 0.4 nM | 563 nM | 214 to 216 °C | 524 nM |  |  |  |  | 
20 | NS(=O)(=O)c1ccc(NC(=O)CNC(=O)c2cccc(Cl)c2)cc1 [compound 21, 3‐Chloro‐N‐(2‐oxo‐2‐((4‐sulfamoylphenyl)amino)ethyl)benzamide] | 14.7 nM | 82.8 nM | 18.5 nM | 364 nM | 262 to 264 °C | 127 nM |  |  |  |  | 
21 | C[C@H](NC(=O)c1ccccc1)C(=O)NCc1ccc(S(N)(=O)=O)cc1 [compound 37, (S)‐N‐(1‐Oxo‐1‐((4‐sulfamoylbenzyl)amino)propan‐2‐yl)benzamide] | 302 nM | 93.3 nM | 56.5 nM | 261 nM | 178 to 180 °C | 722 nM |  |  |  |  | 

Reference: article PMC9298201, “4‐Sulfamoylphenylalkylamides as Inhibitors of Carbonic Anhydrases Expressed in Vibrio cholerae” (Chemmedchem, 2021)
